The target in one assay is human orexin-2 receptor (Homo sapiens (Human), UniProt O43614). The experiment in a line: Intracellular calcium measurement (FLIPR), CHO cells expressing human orexin-2 receptor, 3 nM orexin-A. It is filed as cell-based. To be noted: CHO cells expressing human orexin-2 receptor, FLIPR, 3 nM orexin-A; geometric mean if determined several times; read-out: IC50 OX2. Here is the method:
(§1) In Vitro Assay: Intracellular Calcium Measurements:
(§2) Chinese hamster ovary (CHO) cells expressing the human orexin-1 receptor and the human orexin-2 receptor, respectively, are grown in culture medium (Ham F-12 with L-Glutamine) containing 300 μg/mL G418, 100 U/mL penicillin, 100 μg/mL streptomycin and 10% heat inactivated fetal calf serum (FCS). The cells are seeded at 20,000 cells/well into 384-well black clear bottom sterile plates (Greiner). The seeded plates are incubated overnight at 37° C. in 5% CO2.
(§3) Human orexin-A as an agonist is prepared as 1 mM stock solution in MeOH: water (1:1), diluted in HBSS containing 0.1% bovine serum albumin (BSA), NaHCO3: 0.375 g/L and 20 mM HEPES for use in the assay at a final concentration of 3 nM.
(§4) Antagonists are prepared as 10 mM stock solution in DMSO, then diluted in 384-well plates using DMSO followed by a transfer of the dilutions into in HBSS containing 0.1% bovine serum albumin (BSA), NaHCO3: 0.375 g/L and 20 mM HEPES. On the day of the assay, 50 μL of staining buffer (HBSS containing 1% FCS, 20 mM HEPES, NaHCO3: 0.375 g/L, 5 mM probenecid (Sigma) and 3 μM of the fluorescent calcium indicator fluo-4 AM (1 mM stock solution in DMSO, containing 10% pluronic) is added to each well. The 384-well cell-plates are incubated for 50 min at 37° C. in 5% CO2 followed by equilibration at rt for 30 min before measurement.
(§5) Within the Fluorescent Imaging Plate Reader (FLIPR Tetra, Molecular Devices), antagonists are added to the plate in a volume of 10 μL/well, incubated for 120 min and finally 10 μL/well of agonist is added. Fluorescence is measured for each well at 1 second intervals, and the height of each fluorescence peak is compared to the height of the fluorescence peak induced by 3 nM orexin-A with vehicle in place of antagonist. […] Optimized conditions were achieved by adjustment of pipetting speed and cell splitting regime. The calculated IC50 values may fluctuate depending on the daily cellular assay performance. Fluctuations of this kind are known to those skilled in the art.
In general terms: Calcium assays in cells follow changes in intracellular calcium, usually with a dye or a luminescent sensor.

In a further assay the target is orexin-1 (Homo sapiens (Human), UniProt O43613). Description: Intracellular calcium measurement (FLIPR), CHO cells expressing human orexin-1 receptor, 3 nM orexin-A. It is filed as cell-based. To be noted: CHO cells expressing human orexin-1 receptor, FLIPR, 3 nM orexin-A; geometric mean if determined several times; read-out: IC50 OX1. As for the experimental part: as §1, §2, §3, §4, §5
Chain of orexin-1 (O43613 whole entry): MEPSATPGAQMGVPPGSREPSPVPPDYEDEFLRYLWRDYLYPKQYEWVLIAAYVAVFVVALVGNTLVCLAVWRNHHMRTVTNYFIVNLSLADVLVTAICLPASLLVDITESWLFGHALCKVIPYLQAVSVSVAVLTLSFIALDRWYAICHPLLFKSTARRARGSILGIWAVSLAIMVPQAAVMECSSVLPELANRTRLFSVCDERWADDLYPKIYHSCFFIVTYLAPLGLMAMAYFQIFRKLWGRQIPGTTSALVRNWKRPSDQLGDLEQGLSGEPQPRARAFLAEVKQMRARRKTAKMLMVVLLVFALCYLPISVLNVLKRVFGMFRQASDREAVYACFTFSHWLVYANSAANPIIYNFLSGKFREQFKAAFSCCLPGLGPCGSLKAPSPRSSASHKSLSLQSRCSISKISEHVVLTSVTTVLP

Chain of human orexin-2 receptor (O43614 whole entry): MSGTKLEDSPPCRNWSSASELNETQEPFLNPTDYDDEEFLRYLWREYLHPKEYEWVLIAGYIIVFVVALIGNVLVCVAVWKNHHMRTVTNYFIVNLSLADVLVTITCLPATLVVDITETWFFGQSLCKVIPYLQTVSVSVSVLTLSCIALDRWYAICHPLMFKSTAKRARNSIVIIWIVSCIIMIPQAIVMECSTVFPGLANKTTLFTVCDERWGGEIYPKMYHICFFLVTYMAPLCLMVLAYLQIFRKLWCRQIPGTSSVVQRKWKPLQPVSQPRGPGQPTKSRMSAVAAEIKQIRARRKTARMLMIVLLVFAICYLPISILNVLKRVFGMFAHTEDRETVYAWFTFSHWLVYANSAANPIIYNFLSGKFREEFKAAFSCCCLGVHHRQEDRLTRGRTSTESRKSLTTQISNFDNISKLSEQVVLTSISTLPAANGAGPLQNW

Consider `Cc1ccc(-n2nccn2)c(C(=O)N2CCC[C@H]2c2nc(-c3ccccc3)no2)c1` [Example 1, (5-Methyl-2-[1,2,3]triazol-2-yl-phenyl)-[(S)-2-(3-phenyl-[1,2,4]oxadiazol-5-yl)-pyrrolidin-1-yl]-methanone], for which the IC50 at human orexin-2 receptor is 40 nM; at orexin-1, 373 nM.
As for `CC(=O)n1cc(-c2noc([C@@H]3CCCN3C(=O)c3cc(C)ccc3-n3nccn3)n2)c2ccccc21` [Example 85, 1-(3-{5-[(S)-1-(5-Methyl-2-[1,2,3]triazol-2-yl-benzoyl)-pyrrolidin-2-yl]-[1,2,4]oxadiazol-3-yl}-indol-1-yl)-ethanone], the figures for the IC50 on human orexin-2 receptor and at orexin-1 were 23 nM and 28 nM, respectively.
Consider `Cc1ccc(-n2nccn2)c(C(=O)N2CCC[C@H]2c2nc(-c3cccnc3OC(F)F)no2)c1` [Example 86, {(S)-2-[3-(2-Difluoromethoxy-pyridin-3-yl)-[1,2,4]oxadiazol-5-yl]-pyrrolidin-1-yl}-(5-methyl-2-[1,2,3]triazol-2-yl-phenyl)-methanone], for which the IC50 was 40 nM at human orexin-2 receptor and 103 nM at orexin-1.
Turning to `Cc1ccc(-n2nccn2)c(C(=O)N2CCC[C@H]2c2nc(-c3ccccc3CCO)no2)c1` [Example 87, ((S)-2-{3-[2-(2-Hydroxy-ethyl)-phenyl]-[1,2,4]oxadiazol-5-yl}-pyrrolidin-1-yl)-(5-methyl-2-[1,2,3]triazol-2-yl-phenyl)-methanone], the IC50 at human orexin-2 receptor was found to be 70 nM; at orexin-1, 439 nM.
For the molecule `Cc1ccc(-n2nccn2)c(C(=O)N2CCC[C@H]2c2noc(-c3ccccc3)n2)c1` [Example 302, (5-Methyl-2-[1,2,3]triazol-2-yl-phenyl)-[(S)-2-(5-phenyl-[1,2,4]oxadiazol-3-yl)-pyrrolidin-1-yl]-methanone], the IC50 is 207 nM on human orexin-2 receptor and 258 nM at orexin-1.
For `Cc1ccc(-n2nccn2)c(C(=O)N2CCC[C@H]2c2noc(-c3ccccc3OC(F)(F)F)n2)c1` [Example 303, (5-Methyl-2-[1,2,3]triazol-2-yl-phenyl)-{(S)-2-[5-(2-trifluoromethoxy-phenyl)-[1,2,4]oxadiazol-3-yl]-pyrrolidin-1-yl}-methanone] the same measures were 4 nM and 13 nM.
In the case of `Cc1ccc(-n2nccn2)c(C(=O)N2CCC[C@H]2c2noc(-c3cccc(Cl)c3C)n2)c1` [Example 318, {(S)-2-[5-(3-Chloro-2-methyl-phenyl)-[1,2,4]oxadiazol-3-yl]-pyrrolidin-1-yl}-(5-methyl-2-[1,2,3]triazol-2-yl-phenyl)-methanone], the IC50 came to 7 nM at human orexin-2 receptor and 42 nM at orexin-1.
In the case of `CCOc1c(F)cccc1-c1nc([C@@H]2CCCN2C(=O)c2cc(C)c(C)cc2-n2nccn2)no1` [compound 324, (4,5-Dimethyl-2-[1,2,3]triazol-2-yl-phenyl)-{(S)-2-[5-(2-ethoxy-3-fluoro-phenyl)-[1,2,4]oxadiazol-3-yl]-pyrrolidin-1-yl}-methanone], the IC50 at human orexin-2 receptor was found to be 1 nM.
Regarding `COc1c(F)cccc1-c1nc([C@@H]2CCCN2C(=O)c2cc(C)c(C)cc2-n2nccn2)no1` [compound 340, (4,5-Dimethyl-2-[1,2,3]triazol-2-yl-phenyl)-{(S)-2-[5-(3-fluoro-2-methoxy-phenyl)-[1,2,4]oxadiazol-3-yl]-pyrrolidin-1-yl}-methanone], the IC50 at human orexin-2 receptor worked out at 0.4 nM.
Consider `CCOc1ncccc1-c1nc([C@@H]2CCCN2C(=O)c2cc(Cl)c(C)cc2-n2nccn2)no1` [compound 380], for which the IC50 at human orexin-2 receptor worked out at 1 nM.
As to `Cc1ccc(C(=O)N2CCC[C@H]2c2cnc(-c3ccccc3)[nH]2)c(-n2nccn2)c1` [compound 520, (4-Methyl-2-[1,2,3]triazol-2-yl-phenyl)-[(S)-2-(2-phenyl-3H-imidazol-4-yl)-pyrrolidin-1-yl]-methanone], the IC50 on orexin-1 was 650 nM.
As for “{(S)-2-[3-(3-Chloro-2-methyl-phenyl)-[1,2,4]oxadiazol-5-yl]-pyrrolidin-1-yl}-[3-(2-chloro-phenyl)-5-methyl-isoxazol-4-yl]-methanone [Reference compound 7, reference compound]”, at human orexin-2 receptor, the half-inhibitory concentration (IC50) was determined as 37 nM.

For orientation: IC50 means the concentration needed to halve the response being measured.

These data come from patent US9493446B2, “Orexin receptor antagonists which are [ortho bi-(hetero-)aryl]-[2-(meta bi-(hetero-)aryl)-pyrrolidin-1-yl]-methanone derivatives” (Actelion Pharmaceuticals Ltd, priority 2012, dated 2016).
